Experimental data reported in patent US20090215684A1, “Use of BPI Protein for Treatment of Diseases” (BRIDGE BIORESEARCH LIMITED, priority 2005, published 2009).
Values joined by “and” are separate entries in the source; they are usually repeats but may differ in a detail not shown here. Identical values can stand only once. Marks after values point to notes of the source that are not given here.

Key:
[1] = test system: subjects with glucose intolerance; test: Randomized clinical study of metformin vs placebo in glucose-intolerant patients: anthropometric and fasting variables; type: in vivo, human; details: mean ± SD; for BMI: 9 patients
Text: The objective of this study was to evaluate the effects of changing insulin action—after treatment with an insulin sensitizer (metformin)—on circulating BPI in subjects with glucose intolerance.
Patients were recruited from the Diabetes and Endocrinology Unit at Hospital de Girona Dr Josep Trueta. They were offered participation in the study if they were between 30 and 65 years old and fulfilled all the inclusion criteria. Men and women were both included, but women only when surgical sterility was documented or when they were post-menopausal or when a reliable method of contraception was used. The inclusion criteria were as follows: a) body mass index (BMI) between 22 and 35 kg/m^2, b) impaired glucose tolerance by an OGTT performed two months before the beginning of the study or a fasting glucose level between 110 and 140 mg/dl, c) stability of diet and physical exercise within the past two months. All subjects signed a written informed consent.
(§1) The clinical study was performed in accordance with the Declaration of Helsinki (revised version of Hong Kong 1989) as well as with the EC Note for guidance “Good clinical practice for studies on medicinal products in the European Community”. It was approved by the local Ethics Committee and the Spanish Health Department (Clinical assay number: 97/337). Thirty-one patients were randomized either to placebo or metformin according to the randomization tablets supply generated by LIPHA using the computer program RANCODE +3.1. A dietician with the aim of assuring a stable weight gave general diabetic dietary advice at the beginning of the study. Two months after the first visit (visit 2) subjects started taking metformin or placebo, one tablet per day (850 mg) for the first week and then two tablets per day (one after breakfast and one after dinner) for the following eleven weeks. Drug compliance was checked by tablet counts and any side effect was recorded at visit 3 (6 weeks after randomization) and at visit 4 (at the end of the study).
Out of 118 pre-selected subjects, 31 patients were randomized for the study (16 to metformin and 15 to placebo). Six patients ([…] and 3 on placebo) discontinued early and two non-compliant patients were excluded (both in metformin group). 21 patients (9 on metformin and 12 on placebo) were finally analyzed.

[2] = test system: subjects with glucose intolerance; test: Oral glucose tolerance test (OGTT) in the metformin study; type: in vivo, human; details: mean ± SD
Experimental: The clinical study was performed in accordance with the Declaration of Helsinki (revised version of Hong Kong 1989) as well as with the EC Note for guidance “Good clinical practice for studies on medicinal products in the European Community”. It was approved by the local Ethics Committee and the Spanish Health Department (Clinical assay number: 97/337). Thirty-one patients were randomized either to placebo or metformin according to the randomization tablets supply generated by LIPHA using the computer program RANCODE +3.1. A dietician with the aim of assuring a stable weight gave general diabetic dietary advice at the beginning of the study. […] Drug compliance was checked by tablet counts and any side effect was recorded at visit 3 (6 weeks after randomization) and at visit 4 (at the end of the study).
(§2) To assess glucose tolerance, an OGTT was performed after an overnight fast. Insulin sensitivity was evaluated by HOMA (Homeostasis model assessment) using basal (mean of three samples obtained at 5 minutes interval) glucose and insulin (Bonora E, et al., Diabetes Care, 2000, vol. 23, pp. 57-63). Beta cell function was calculated by CIGMA (Continuous infusion of glucose with model assessment) from achieved C-peptide and glucose values (Hosker J P, et al., Diabetologia 1985, vol. 28, pp. 401-11). […]

[3] = test system: subjects with glucose intolerance; test: Insulin sensitivity by HOMA (Homeostasis model assessment) in the metformin study; type: in vivo, human; details: mean ± SD
Experimental: as §1
as §2, with “401-11). CIGMA test consists of a continuous intravenous infusion of 5-mg glucose per kg of ideal body weight.min^−1 using a 10 g.dl^−1 glucose solution with model assessment of glucose, insulin and C-peptide (RIA, Byk-Sangtec Diagnostica, Dietzenbach, Germany) values obtained before (basal value, mean value of three samples obtained at 5 minute intervals) and at the end (achieved value, mean value of samples obtained at 50, 55 and 60 minutes) of the test.” for “401-11).”

[4] = test system: subjects with glucose intolerance; test: CIGMA (continuous infusion of glucose with model assessment) in the metformin study; type: in vivo, human; details: mean ± SD; for Achieved C-peptide / Achieved glucose / Achieved insulin: after intravenous glucose
Experimental: as §1
To assess glucose tolerance, an OGTT was performed after an overnight fast. Insulin sensitivity was evaluated by HOMA (Homeostasis model assessment) using basal (mean of three samples obtained at 5 minutes interval) glucose and insulin (Bonora E, et al., Diabetes Care, 2000, vol. 23, pp. 57-63). Beta cell function was calculated by CIGMA (Continuous infusion of glucose with model assessment) from achieved C-peptide and glucose values (Hosker J P, et al., Diabetologia 1985, vol. 28, pp. 401-11). CIGMA test consists of a continuous intravenous infusion of 5-mg glucose per kg of ideal body weight.min^−1 using a 10 g.dl^−1 glucose solution with model assessment of glucose, insulin and C-peptide (RIA, Byk-Sangtec Diagnostica, Dietzenbach, Germany) values obtained before (basal value, mean value of three samples obtained at 5 minute intervals) and at the end (achieved value, mean value of samples obtained at 50, 55 and 60 minutes) of the test. C-peptide detection level was 0.1 ng/ml and had intra- and inter-assay coefficients of variation of 2.6% and 4.4%.

BPI = test: Circulating plasma BPI (BPI ELISA) in the metformin study; type: in vivo, human
Experimental: BPI ELISA: Plasma EDTA BPI concentrations were measured by a sandwich enzyme-linked immunosorbent assay (Human BPI ELISA kit, HyCult biotechnology b.v.; P B Uden, The Netherlands) according to the manufacturer's instructions. The kit has an assay sensitivity of 250 pg/ml. […] The clinical study was performed in accordance with the Declaration of Helsinki (revised version of Hong Kong 1989) as well as with the EC Note for guidance “Good clinical practice for studies on medicinal products in the European Community”. It was approved by the local Ethics Committee and the Spanish Health Department (Clinical assay number: 97/337). Thirty-one patients were randomized either to placebo or metformin according to the randomization tablets supply generated by LIPHA using the computer program RANCODE +3.1. A dietician with the aim of assuring a stable weight gave general diabetic dietary advice at the beginning of the study. Two months after the first visit (visit 2) subjects started taking metformin or placebo, one tablet per day (850 mg) for the first week and then two tablets per day (one after breakfast and one after dinner) for the following eleven weeks. Drug compliance was checked by tablet counts and any side effect was recorded at visit 3 (6 weeks after randomization) and at visit 4 (at the end of the study).

ob/ob mice = test: Effects of administration of BPI on blood glucose concentration in ob/ob mice; type: in vivo
Experimental: The objective of this study was to evaluate the effects of administration of BPI on glucose concentration on ob/ob mice
Obese mice ob/ob were treated for 6 days with a daily intraperitoneal dose of 2.5 ng of human purified BPI per gram of body weight or vehicle (control mice). Before the treatment both groups (control and BPI treated) presented a high glycemia and no differences were identified between both groups (342±33 and 342±38 mg/dl, respectively).

[5] = metformin, 12 weeks, p<0.05 within group
[6] = metformin, 12 weeks, p<0.05 within group, listed as metformin

Q: How did the BMI ([1]; metformin 850 mg tablets, two per day, 12 weeks) turn out when `CN(C)C(=N)N=C(N)N` [Metformin, metformin] was run?
A: The BMI was 27.7 ± 4.3 Kg/m^2.

Q: What about the BMI ([1]; metformin group, baseline (before treatment)) of the same molecule?
A: The BMI was 28.0 ± 4.5 Kg/m^2.

Q: And the “Fasting C-peptide” value ([1]; metformin group, baseline)?
A: Its value is 2.5 ± 0.7 ng/mL.

Q: What about the Fasting glucose ([1]; metformin group, baseline) of the same molecule?
A: Its Fasting glucose is 110.1 ± 9.9 mg/dL.

Q: And the Fasting insulin ([1]; metformin group, baseline)?
A: Its Fasting insulin is 11.6 ± 5.4 mU/l.

Q: What about the Waist circumference ([1]; metformin group, baseline) of the same molecule?
A: Its Waist circumference is 95.9 ± 11.5.

Q: And the Waist-to-hip ratio ([1]; metformin group, baseline)?
A: Its Waist-to-hip ratio is 0.96 ± 0.1.

Q: And the Waist circumference ([1]; metformin, 12 weeks)?
A: Its Waist circumference is 94.8 ± 9.4.

Q: What about the Waist-to-hip ratio ([1]; metformin, 12 weeks) of the same molecule?
A: The Waist-to-hip ratio was 0.92 ± 0.07.

Q: And the Fasting glucose ([1]; metformin, 12 weeks, p<0.01 within group)?
A: The Fasting glucose was 98.9 ± 15.7^a mg/dl.

Q: And the Fasting glucose ([1]; metformin, 12 weeks, p<0.01 within group, listed as metformin)?
A: The Fasting glucose was “decreased”.

Q: What about the “Fasting C-peptide” value [1, 5] of the same molecule?
A: Its value is 1.8 ± 0.5^b ng/ml.

Q: And the Fasting insulin [1, 5]?
A: The Fasting insulin was 8.8 ± 3.5^b mU/l.

Q: And the “Fasting C-peptide” value [1, 6]?
A: Its value is “statistically lower”.

Q: And the Fasting insulin [1, 6]?
A: The Fasting insulin was “statistically lower”.

Q: And the “120′ OGTT glucose” value ([2]; metformin group, baseline)?
A: The value was 162.2 ± 27.8 mg/dL.

Q: What about the “120′ OGTT glucose” value ([2]; metformin, 12 weeks) of the same molecule?
A: Its value is 140.6 ± 42.9 mg/dL.

Q: And the HOMA sensitivity ([3]; metformin group, baseline)?
A: The HOMA sensitivity was 37.4 ± 15.2%.

Q: What about the HOMA sensitivity [3, 5] of the same molecule?
A: The HOMA sensitivity was 50.4 ± 23.2^b %.

Q: And the HOMA sensitivity [3, 6]?
A: Its HOMA sensitivity is “improved”.

Q: And the “Achieved C-peptide” value ([4]; metformin group, baseline)?
A: The value was 5.2 ± 1.2 ng/mL.

Q: And the Achieved glucose ([4]; metformin group, baseline)?
A: Its Achieved glucose is 190.5 ± 18.9 mg/dL.

Q: What about the Achieved insulin ([4]; metformin group, baseline) of the same molecule?
A: The Achieved insulin was 28.5 ± 13.5 mU/l.

Q: What about the Achieved glucose ([4]; metformin, 12 weeks) of the same molecule?
A: The Achieved glucose was 174.6 ± 34.5 mg/dL.

Q: And the Achieved insulin ([4]; metformin, 12 weeks)?
A: Its Achieved insulin is 23.3 ± 7.6 mU/l.

Q: What about the “Achieved C-peptide” value [4, 5] of the same molecule?
A: The value was 4.2 ± 1.0^b ng/ml.

Q: And the “Achieved C-peptide” value [4, 6]?
A: The value was “statistically lower”.

Q: What about the “CIGMA beta cell function” value ([4]; metformin group, baseline) of the same molecule?
A: Its value is 82.8 ± 24.0%.

Q: What about the “CIGMA beta cell function” value ([4]; metformin, 12 weeks) of the same molecule?
A: The value was 90.9 ± 34.0%.

Q: And the “CIGMA beta cell function” value ([4]; metformin, 12 weeks, listed as metformin)?
A: Its value is “not modified”.

Q: What about the “BPI (circulating, plasma)” value (BPI; metformin group, baseline, median (interquartile range 1.26-7.73)) of the same molecule?
A: Its value is 2.75 ng/mL.

Q: And the “BPI (circulating, plasma)” value (BPI; metformin, 12 weeks, median (interquartile range 2.56-38.8), p = 0.017 within group)?
A: Its value is 7.49 ng/mL.

Q: And the “BPI (circulating, plasma)” value (BPI; metformin, 12 weeks, median (interquartile range 2.56-38.8), p = 0.017 within group, listed as metformin)?
A: The value was “significantly increased”.

B1: BPI: human purified bactericidal/permeability-increasing (BPI) protein, 456 residues, approximately 55 kD (protein, listed as Homo sapiens)
chain: VNPGVVVRISQKGLDYASQQGTAALQKELKRIKIPDYSDSFKIKHLGKGHYSFYSMDIREFQLPSSQISMVPNVGLKFSISNANIKISGKWKAQKRFLKMSGNFDLSIEGMSISADLKLGSNPTSGKPTITASSCSSHINSVHVHISKSKVGWLIQLFHKKIESALRNKMNSQVCEKVTNSVSSKLQPYFQTL
Q: Which results are given for B1?
A: GLU (blood glucose concentration), Mean (ob/ob mice; BPI treated group, day 0 (before the treatment)): 342 ± 38 mg/dL and 341.67 mg/dL; GLU (blood glucose concentration), Mean (ob/ob mice; daily intraperitoneal 2.5 ng human purified BPI per gram body weight, 3 days of treatment): 289.00 mg/dL; GLU (blood glucose concentration), Mean (ob/ob mice; daily intraperitoneal 2.5 ng human purified BPI per gram body weight, 6 days of treatment): 261 ± 21 mg/dL and 261.80 mg/dL; Effect on glycemia (ob/ob mice; treatment for 3 or 6 days with 2.5 ng/g BPI i.p. daily, vs control): pronounced decrease of glycemia
